Measurements published in patent publication US12539264B2, “Composition comprising pentapeptide as active ingredient” (priority 2020, dated 2026).
No end group written: not given here.

Experiments:
[1] = rat, in vivo
SH-SY5Y cells = assay: Intracellular penetration of rhodamine-pentapeptide conjugate (fluorescence microscopy); assay type: cell-based; details: rhodamine-peptide conjugate, 4 hours
Procedure: In order to confirm that the pentapeptide of the present invention penetrates into the nerve cells, SH-SY5Y cells were seeded in a 6-well plate at a density of 3×10^5 cells/well and cultured in a 37° C., 5% CO2 incubator for 24 hours, and then the medium was replaced with serum-free medium. After treatment with the rhodamine-peptide conjugate for 4 hours at each concentration, cells were fixed by treatment with 4% paraformaldehyde, and nuclei were stained using a DAPI staining kit (Invitrogen, USA). Intracellular peptide penetration was observed using a fluorescence microscope. Blue represents the nuclei of cells stained with DAPI, and red represents the ‘rhodamine-pentapeptide’ conjugate.

SNARE complex = SNARE complex (Homo sapiens, UniProt Q16623); assay: Inhibition of SNARE complex formation in nerve cells (Western blot, syntaxin 1a antibody); assay type: cell-based
Sequence of SNARE complex (Q16623 whole entry, one chain of several): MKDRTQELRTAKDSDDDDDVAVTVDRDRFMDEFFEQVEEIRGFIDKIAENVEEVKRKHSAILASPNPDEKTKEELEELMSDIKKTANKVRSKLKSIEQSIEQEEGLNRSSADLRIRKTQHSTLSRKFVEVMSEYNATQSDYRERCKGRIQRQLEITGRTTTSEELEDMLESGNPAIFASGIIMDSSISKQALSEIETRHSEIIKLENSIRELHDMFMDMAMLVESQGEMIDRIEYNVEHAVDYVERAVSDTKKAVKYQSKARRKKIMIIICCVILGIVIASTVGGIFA

Substance	penetration into skin tissue [1]	penetration into nerve cells (SH-SY5Y cells)	SNARE complex formation (SNARE complex)
KFLIK [pentapeptide, KFLIK]	penetrated into the muscle layer of the skin tissue and co-localized with the nerve cell marker	penetrated into nerve cells	
botulinum toxin			inhibited
